Earlier results in US6413717B1, “Methods for indentifying anti-cancer agents” (Corixa Corporation, priority 1998, dated 2002).

What was measured:
mda-7 = settings: IFN-β 2000 U and MEZ 10 ng/mL, agents known to modulate gene expression
human melanoma cells = settings: IFN-β 2000 U and MEZ 10 ng/mL

C=C(C)[C@@]12O[C@@]3(c4ccccc4)O[C@@H]1[C@@H]1[C@@H]4O[C@]4(CO)[C@@H](O)[C@]4(O)C(=O)C(C)=C[C@H]4[C@@]1(O3)[C@H](C)[C@H]2OC(=O)/C=C/C=C/c1ccccc1 [mezerein]
mda-7 expression (mda-7): induce an increase
proliferative potential (human melanoma cells): irreversible loss of proliferative potential
terminal differentiation (human melanoma cells): induction of terminal differentiation
